In US8785499B2 (priority 2009, dated 2014):

Assays:
baNadD = baNadD (Bacillus anthracis, UniProt C3L5T6); assay: biochemical; format: biochemical
ecNadD = ecNadD (Escherichia coli (strain K12), UniProt P0A752); assay: biochemical; format: biochemical

Chain of baNadD (C3L5T6 whole entry, looked up): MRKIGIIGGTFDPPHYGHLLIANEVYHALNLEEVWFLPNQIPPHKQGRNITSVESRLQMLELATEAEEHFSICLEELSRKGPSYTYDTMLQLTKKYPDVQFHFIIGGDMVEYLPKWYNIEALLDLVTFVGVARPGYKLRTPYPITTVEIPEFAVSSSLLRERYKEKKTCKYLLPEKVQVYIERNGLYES

Structure (SMILES) | […]. anthracis (baNadD) | […]. coli (ecNadD)
O=C(O)CN1C(=O)CC(Cc2ccc(Cl)cc2)C1=O (stereo not drawn) [compound 168] | 0% | 3%
O=C(O)CSc1nc2ccccc2n1CC(=O)O [compound 169] | 0% | 3%
COc1ccc(S(=O)(=O)Nc2ccc(CC#N)cc2)cc1C [compound 170] | 0% | 3%
O=C(NNC(=O)C1CC=CCC1C(=O)O)c1cccc([NH2+][O-])c1 (stereo not drawn) [compound 171] | 24% | 3%
O=C(O)c1ccc(/C=N/NC(=O)c2cc3cc(Br)ccc3o2)cc1 [compound 172] | 32% | 3%
Nc1nc(SCC(=O)NCC2CCCO2)n[nH]1 (stereo not drawn) [compound 173] | 0% | 3%
O=C(O)c1cccc(COc2ccc(CO)cc2Cl)c1 [compound 175] | 0% | 3%
O=C(O)CSc1nc(=O)cc(-c2ccccc2)[nH]1 [compound 176] | 0% | 3%
O=C(CSC(=O)c1ccccc1)Nc1ccc(Cl)cn1 [compound 177] | 21% | 3%
CS(=O)(=O)NCCOc1ccc(S(=O)(=O)NCc2ccccc2)cc1 [compound 179] | 0% | 3%
O=C(O)c1cccc(CSc2ncccn2)c1 [compound 180] | 15% | 3%
O=C(O)c1ccc(OCOc2ccc(C(=O)O)c(C(=O)O)c2)cc1C(=O)O [compound 181] | 56% | 3%
CC(=NNC(=O)COc1ccc(C)cc1)C(=O)O [compound 182] | 14% | 3%
Nc1nnc(-c2cc(-c3ccc(Cl)cc3)on2)o1 [compound 183] | 7% | 3%
Cc1ccccc1N1CC(C(=O)O)CC1=O (stereo not drawn) [compound 184] | 16% | 2%
O=C(O)c1[nH]c2ccc(Cl)cc2c1-c1ccccc1 [compound 185] | 40% | 2%
O=C(Nc1ccc([N+](=O)[O-])cn1)c1sc2ccccc2c1Cl [compound 186] | 9% | 2%
C=CCSc1nnc(-c2cc(Br)ccc2N)c(O)n1 [compound 187] | 0% | 2%
O=S(=O)(NCc1cccs1)c1ccc(Br)cc1 [compound 188] | 0% | 1%
O=C(CSc1n[nH]c(=O)[nH]c1=O)N/N=C\c1ccc(Br)cc1 [compound 189] | 0% | 1%
CN1CCN(C(=O)c2ccccc2C(=O)O)CC1 [compound 190] | 0% | 1%

Structure (SMILES) | […]. anthracis (baNadD) | […]. coli (ecNadD)
N/N=C/c1c(Cl)cccc1Cl [compound 191] | 5% | 1%
COc1ccc(N(CC(=O)O)S(=O)(=O)c2ccc(C)cc2)cc1Cl [compound 192] | 0% | 1%
O=C(O)CCSCCc1ccncc1 [compound 193] | 18% | 1%
O=C1NC(=O)/C(=C\c2ccc(O)c(I)c2)N1 [compound 194] | 62% | 1%
O=C(NNC(=O)c1ccccc1C(=O)O)c1ccc(Cl)cc1 [compound 195] | 0% | 1%
COCCNS(=O)(=O)c1ccc2c(c1)CCN2C(=O)CCC(=O)O [compound 196] | 52% | 1%
O=C(CSc1nc2ccccc2[nH]1)Nc1nncs1 [compound 197] | 34% | 0%
N=C1NC(=O)C(Cc2ccccc2Cl)S1 (stereo not drawn) [compound 198] | 7% | 0%
Cc1cc(S(=O)(=O)Nc2cccc(C(=O)O)c2)ccc1Cl [compound 199] | 0% | 0%
CC(=NNC(=O)CCC(=O)Nc1ccc(Br)cc1)c1ccc2ccccc2c1 [compound 200] | 76% | 0%
Cc1ccc(-c2nnc(SCC(=O)O)o2)cc1 [compound 201] | 25% | 0%
O=C(N/N=C/c1ccccc1Cl)c1cccnc1 [compound 202] | 32% | 0%
O=S(=O)(Nc1ccc(Br)c(Cl)c1)c1cccs1 [compound 203] | 0% | 0%
NS(=O)(=O)c1ccc(NC(=O)CSc2ncn(-c3ccccc3)n2)cc1 [compound 205] | 40% | 0%
NS(=O)(=O)c1ccc(NC(=S)NCCc2c[nH]c3ccccc23)cc1 [compound 206] | 25% | 0%
O=C(O)CCCC(=O)Nc1nc2ccccc2s1 [compound 207] | 7% | 0%
CSc1cccc(NS(=O)(=O)c2ccc(F)cc2)c1 [compound 208] | 0% | 0%
O=C(O)c1cc(NC(=O)c2ccc(Cl)cc2Cl)cc(C(=O)O)c1 [compound 209] | 0% | 0%
Cc1ccc(S(=O)(=O)/N=C(/NCC(=O)O)c2ccccc2)cc1 [compound 211] | 42% | 0%
CCC(NS(=O)(=O)c1ccc(OC)cc1)C(=O)O (stereo not drawn) [compound 212] | 32% | 0%
NS(=O)(=O)c1ccc(CCNC(=O)c2ccc([NH2+][O-])cc2)cc1 [compound 213] | 54% | 0%

Structure (SMILES) | […]. anthracis (baNadD) | […]. coli (ecNadD)
NS(=O)(=O)c1ccc(/N=C/c2ccc(Br)cc2)cc1 [compound 214] | 0% | 0%
O=C(O)c1ccc(-n2ncc(Cl)c(Cl)c2=O)cc1 [compound 217] | 0% | 0%
NS(=O)(=O)c1ccc(N/C=C2\C(=O)Oc3ccccc3C2=O)cc1 [compound 218] | 0% | 0%
CCOC(=O)c1ccc(N/C=C2\C(=O)Oc3ccccc3C2=O)cc1 [compound 220] | 0% | 0%
O=C(NCc1cccs1)C1CC(c2cccc(Br)c2)=NO1 (stereo not drawn) [compound 222] | 0% | 0%
CC(C)COC1CS(=O)(=O)CC1OCC(C)C (stereo not drawn) [compound 223] | 20% | 0%
CSc1ccccc1NC(=S)Nc1cccnc1 [compound 224] | 0% | 0%
Brc1ccc2ncnc(NCc3cccnc3)c2c1 [compound 225] | 55% | 0%
O=C(O)C1CCCN(S(=O)(=O)c2cccc([N+](=O)[O-])c2)C1 (stereo not drawn) [compound 227] | 0% | 0%
O=C(CSc1ncnc2ccccc12)Nc1ccc2nsnc2c1 [compound 228] | 28% | 0%
O=C(CSc1nc2ccccc2o1)Nc1nncs1 [compound 229] | 0% | 0%
CC(=O)Nc1ccc(/N=C/c2ccc([N+](=O)[O-])cc2)cc1 [compound 230] | 0% | 0%
Cc1ccc(SCc2cc(=O)n3ncnc3[nH]2)cc1 [compound 231] | 0% | 0%
Nc1nc(-c2cccc(Br)c2)cs1 [compound 232] | 12% | 0%
N#CCc1ccc(NC(=O)/C=C/c2ccc([N+](=O)[O-])o2)cc1 [compound 233] | 8% | 0%
O=C(O)c1ccc(-c2ccccc2F)o1 [compound 234] | 0% | 0%
O=C(O)c1ccc2[nH]c(CCc3nc4cc(C(=O)O)ccc4[nH]3)nc2c1 [compound 235] | 0% | 0%
O=C(CSc1ccccc1)Nc1cc(C(=O)O)cc(C(=O)O)c1 [compound 236] | 0% | 0%
Nc1nn(S(=O)(=O)c2ccccc2)cc1-c1ccc(Cl)cc1 [compound 237] | 0% | 0%
O=C(O)CCC(=O)NCc1ccc(C(=O)O)cc1 [compound 238] | 14% | 0%
O=C(O)CCC(=O)Nc1ccc(-c2nnc(-c3ccco3)o2)cc1 [compound 239] | 11% | 0%
